Measurements reported in patent US11337627B2, “Bioelectrode for detection and/or oxidation of glucose, its production method and device” (CENTRE NATIONAL DE LA RECHERCHE SCIENTIFIQUE, priority 2016, dated 2022).

How the values were obtained:
FAD-GDH enzyme [1] = experiment: Cyclic voltammetric inhibition assays: FAD-GDH directly on carbon nanotubes, aromatic molecules added in solution; assay type: biochemical; conditions: 100 mmol L^−1 glucose; for effect on catalytic currents (inhibition of FAD-GDH): 200 μmol L^−1 in solution, sampling times of less than three hours; for catalytic current when the aromatic molecule is present in solution, versus absence of redox mediator: electrode of Comparative Example 4; for effect on performance of bioelectrocatalysis over time (inhibition of FAD-GDH): added in solution
Protocol: They were obtained with electrodes whose layer of FAD-GDH enzymes is directly deposited on layer 2 of carbon nanotubes in the presence of 100 mmol L^−1 of glucose solution.
The aromatic molecules 9.10-phenanthrenequinone, 1.10-phenanthroline-5.6-dione, phenanthrene and 1.10-phenanthroline are then gradually added in solution.
0 μM PX=CNTs functionalized by FAD-GDH in the presence of a glucose solution at 100 mmol L^−1 and in the absence of any aromatic molecules (X representing the aromatic molecule PLQ (cartridge A) or PQ (cartridge B))
400 μM PX=CNTs functionalized by FAD-GDH in the presence of a glucose solution at 100 mmol L^−1 and 400 μmol L^−1 of an aromatic molecule PLQ (cartridge A) or PQ (cartridge B)
400 μM PX (180 min)=CNTs functionalized by FAD-GDH in the presence of a glucose solution at 100 mmol L^−1 and […] of an aromatic molecule PLQ (cartridge A) or PQ (cartridge B) after incubation in the solution with a duration of 180 minutes.
200 μM PQ=CNTs functionalized by FAD-GDH in the presence of a solution of glucose at 100 mmol L^−1 and 200 μmol L^−1 of an aromatic molecule PQ (cartridge C and D)
200 μM PQ+200 μM PY (180 min)=CNTs functionalized by FAD-GDH in the presence of a glucose solution at 100 mmol L^−1, 200 μmol L^−1 of an aromatic molecule PQ and 200 μmol L^−1 of an aromatic molecule PY after incubation in the solution for a duration of 180 minutes. (Y represents the aromatic molecule PL (cartridge C) or PH (cartridge D)). • PLQ=1.10-phenanthroline-5.6-dione. • PQ=9.10-phenanthrenequinone, • PL=1.10-phenanthroline, • PH=phenanthrene,
The electrode tested was a vitreous carbon electrode (support 1) in which the FAD-GDH enzyme alone was deposited on layer 2 of carbon nanotubes (Comparative Example 4).

FAD-GDH enzyme [2] = experiment: Cyclic voltammetry of bioelectrodes (carbon nanotubes / aromatic molecule / FAD-GDH) without and with glucose; assay type: biochemical
Protocol: In FIG. 4, the following terms have the following meanings: • uCNT=carbon nanotubes alone, • FADGDH=CNTs functionalized by FAD-GDH, • 25 mM glucose=CNTs functionalized by FAD-GDH in the presence of a glucose solution at 25 mmol L^−1, • 25 mM glucose (FAD region)=same as above, including the electroactive region of the FAD-GDH cofactor (FAD) in the measurement window in the presence of a glucose solution at 25 mmol L^−1, • FAD=Flavin Adenine Dinucleotide, • 25 mM glucose=concentration of the glucose solution of 25 mmol L^−1, • PYR-NHS=N-hydroxysuccinimide ester of pyrene-butyric acid, • PYR=pyrene, • 1.4-NQ=1.4-naphthoquinone, • PQ=9.10-phenanthrenequinone, • PL=1.10-phenanthroline, • MPL=5-methyl-1.10-phenanthroline, • PLQ=1.10-phenanthroline-5.6-dione.
The tested electrode was a vitreous carbon electrode (support 1) coated with layer 2 of carbon nanotubes alone (Comparative Example 2) or in which the FAD-GDH enzyme alone was deposited on layer 2 of carbon nanotubes (Comparative Example 4).
The dashed curve denoted 3 represents the cyclic voltammogram obtained with a larger electrochemical window (from −0.600 to 0.100 V vs SCE), in the presence of a glucose solution at 25 mmol L^−1.
In FIG. 4, the cartridge C represents the cyclic voltammograms of the electrode of Comparative Example 6 consisting of a vitreous carbon electrode, of layer 2 of carbon nanotubes functionalized by layer 3 of an aromatic molecule which is 1-pyrenebutyric acid N-hydroxysuccinimide ester (PANHS).
Cartridges D, G and H represent the cyclic voltammograms of the electrodes obtained in Examples 4, 5 and 6 respectively.
Cartridges E, F and I show the cyclic voltammograms obtained with the electrodes obtained in Examples 7, 8 and 1 respectively.

FAD-GDH enzyme [3] = experiment: Cyclic voltammetric inhibition assays: FAD-GDH directly on carbon nanotubes, aromatic molecules added in solution; assay type: biochemical; conditions: 100 mmol L^−1 glucose, 400 μmol L^−1 aromatic molecule
enzyme FAD-GDH = conditions: known; supplier catalog; cited from earlier work

Row | Structure (SMILES) | effect on catalytic currents (inhibition of FAD-GDH) (FAD-GDH enzyme [1]) | glucose concentration at saturation (FAD-GDH enzyme [2]; aromatic molecule immobilized on carbon nanotube layer with FAD-GDH) | electrocatalytic current (FAD-GDH enzyme [2]; aromatic molecule immobilized on carbon nanotube layer with FAD-GDH, potentials higher than 0 V vs SCE, after saturation with glucose) | electron transfer behavior of the aromatic molecule towards FAD-GDH (FAD-GDH enzyme [2]; non-covalent immobilization on a layer of carbon nanotubes) | catalytic current when the aromatic molecule is present in solution, versus absence of redox mediator (FAD-GDH enzyme [1]) | effect on performance of bioelectrocatalysis over time (inhibition of FAD-GDH) (FAD-GDH enzyme [1]) | change of catalytic current after 180 min incubation (inhibition of FAD-GDH) (FAD-GDH enzyme [3]) | inhibitory activity for FAD-GDH oxidation of glucose (enzyme FAD-GDH) | change of catalytic current after 180 min incubation together with PQ (inhibition of FAD-GDH) (FAD-GDH enzyme [1]; 200 μmol L^−1 PQ and 200 μmol L^−1 tested molecule, 180 min)
1 | c1ccc2c(c1)ccc1ccccc12 [phenanthrene] | does not cause a drastic decrease in the catalytic currents |  |  |  |  |  |  |  | 
2 | O=C1C(=O)c2cccnc2-c2ncccc21 [1.10-phenanthroline-5.6-dione] |  | ~130 mmol/L | 600-700 μA | the best redox aromatic molecule | strong increase in the catalytic current | progressive decrease in the performance of bioelectrocatalysis | sharp decrease in the catalytic current |  | 
3 | O=C1C(=O)c2ccccc2-c2ccccc21 [9.10-phenanthrenequinone] | does not cause a drastic decrease in the catalytic currents |  |  |  | strong increase of the catalytic current |  | no decrease in the catalytic current |  | 
4 | c1cnc2c(c1)ccc1cccnc12 [1.10-phenanthroline] |  |  |  |  |  | progressive decrease in the performance of bioelectrocatalysis |  | inhibitor of the enzyme FAD-GDH | The catalytic current drops again
